How the values were obtained:
[1] = tested on: unresectable or metastatic melanoma that is BRAF^v600E mutation-positive; settings: cited from earlier work
[2] = tested on: BRAF^v600 mutation-positive advance melanoma; settings: cited from earlier work
[3] = 24-hour solubility of active drug in buffers across the physiological pH range; format: physicochemical; settings: 37° C.
Experimental: Cobimetinib is considered to be a high-solubility, moderate-to-high permeability compound with in vivo absorption/pharmacokinetic characteristics consistent with Biopharmaceutics Classification System (BCS) Class 1. […] An active drug is considered highly soluble when the highest dose strength is soluble in <250 mL water over a pH range of 1 to 7.5.

Compound	decrease in the risk of disease progression or death ([1]; compared with dacarbazine) [%]	reduction in the risk of death ([1]; compared with dacarbazine) [%]	response rates ([1]; human, in vivo)	median progression-free survival [2] [months]	Solubility ([3]; 50 mM Acetate pH 4.5 (pH measured 4.5)) [µg/mL]	Solubility ([3]; 50 mM Phosphate pH 6.8 (pH measured 6.8)) [µg/mL]	Solubility ([3]; 50 mM Phosphate pH 7.5 (pH measured 7.5)) [µg/mL]	Solubility ([3]; 0.1M HCl pH 1.1 (pH measured 1.9)) [µg/mL]	Solubility ([3]; FaSSIF pH 6.5 (pH measured 6.4)) [µg/mL]	Solubility ([3]; FeSSIF pH 5.0 (pH measured 5.0)) [µg/mL]	Solubility ([3]; Water, pH Neutral (pH measured 7.5)) [µg/mL]
CCCS(=O)(=O)Nc1ccc(F)c(C(=O)c2c[nH]c3ncc(-c4ccc(Cl)cc4)cc23)c1F [vemurafenib, propane-1-sulfonic acid {3-[5-(4-chlorophenyl)-1H-pyrrolo[2,3-b]pyridine-3-carbonyl]-2,4-difluoro-phenyl}-amide]	74	63	greater than 50%	6.2	–	–	–	–	–	–	–
(S)-[3,4-Difluoro-2-(2-fluoro-4-iodoanilino)phenyl]{3-hydroxy-3-[(2S)-piperidin-2-yl]azetidin-1-yl} methanone [cobimetinib hemifumarate]	–	–	–	–	1080	780	730	48210	480	4130	720
